According to paper PMC5587642, “A Novel Benzocoumarin-Stilbene Hybrid as a DNA ligase I inhibitor with in vitro and in vivo anti-tumor activity in breast cancer models” (Scientific Reports, 2017):

What was measured:
MDA-MB-231 cells = test: MTT cell viability assay; type: cell-based, human; conditions: for inhibition at 10 µM: Homo sapiens, MDA-MB-231, 48 h, read-out: Antiproliferative activity at 10μM in MDA-MB-231; for inhibition at 10 µM / Antiproliferative activity at 10μM in MDA-MB-231: % inhibition
Description: (§1) Cell viability assay was performed as described previously. Briefly, cells were seeded in 96 well plates and treated with different concentrations of compound 19 for 48 h. After drug treatment, MTT reagent was added in each well of the plate and cell viability was quantified by measuring the absorbance at 590 nm.

[1] = tested on: 4T1 (Mouse Breast Cancer); test: MTT cell viability assay; type: cell-based; conditions: 10 µM
Description: as §1

A549 (Lung) = test: MTT cell viability assay; type: cell-based
Description: as §1

DLD1 (Colon) = test: MTT cell viability assay; type: cell-based
Description: as §1

PANC-1 (Pancreas) = test: MTT cell viability assay; type: cell-based
Description: as §1

A172 (Brain) = test: MTT cell viability assay; type: cell-based
Description: as §1

PLC/PRF/5 (Liver) = test: MTT cell viability assay; type: cell-based
Description: as §1

SK-OV-3 (Ovary) = test: MTT cell viability assay; type: cell-based
Description: as §1

FEN1 protein = target: T1, FEN1 protein (Homo sapiens, UniProt P39748); test: Flap cleavage assay; type: biochemical; conditions: compound 19 at 5, 10, 20 µM
T1 construct: His-tag (C); made in house; host or cells: E. coli BL21DE3
T1 sequence (P39748 whole entry): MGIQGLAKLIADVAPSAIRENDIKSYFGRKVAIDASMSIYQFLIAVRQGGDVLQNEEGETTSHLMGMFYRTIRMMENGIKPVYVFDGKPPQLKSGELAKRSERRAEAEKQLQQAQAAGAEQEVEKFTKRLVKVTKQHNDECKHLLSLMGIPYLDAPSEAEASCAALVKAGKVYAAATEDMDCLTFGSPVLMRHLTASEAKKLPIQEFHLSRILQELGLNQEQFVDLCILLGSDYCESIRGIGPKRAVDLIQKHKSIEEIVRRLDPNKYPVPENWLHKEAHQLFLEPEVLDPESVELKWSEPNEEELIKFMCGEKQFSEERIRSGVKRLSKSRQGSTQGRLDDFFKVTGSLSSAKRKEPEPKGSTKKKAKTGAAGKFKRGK
Description: Purification of FEN 1: Full length FEN1 DNA template was taken from pShuttle-FEN1hWT, a gift from Sheila Stewart (Addgene plasmid#35027) is subcloned into a pET41a expression vector containing C-terminal His-tag. pET41FEN1His freshly transformed into expression host BL21DE3 E. coli cells (Novagene), single colonies picked and inoculated in 5ml of LB media containing 50μg/ml of Kanamycin, grown for 3 to 4 hrs and further subcultured in 100 ml of LB medium containing 50μg/ml of Kanamycin and grown at 37°C till the OD reached to 0.6-0.7, induced at 0.5 mM IPTG at 16°C for 18hrs. Pellets were collected and lysed in 20 mM tris 150 mM NaCl (Lysis buffer) containing 1mM PMSF and 1mM benzamidine hydrochloride and purified by Ni-NTA affinity chromatography.
Flap cleavage assay: All oligos were purchased from Integrated DNA Technologies and dissolved in nuclase free water at concentration of 100μM. FAM-labeled 25+6 Flap-mer (5’-[…]-3’*6FAM)) was annealed with 52- mer (5’-[…]-3’) and 27-mer (5’-[…]-3’) to form a complementary double strand flap cleavage substrate. […] The cleaved and uncleaved DNA molecules are separated on 15% Urea gel and bands were detected by Image Quant LAS 4010 (GE Healthcare).

COc1cc(/C=C/c2cc(=O)oc3c2ccc2c(C)cccc23)cc(OC)c1 [Compound 34]
inhibition at 10 µM (MDA-MB-231 cells): 0.54%

COc1cccc(/C=C/c2cc(=O)oc3c2ccc2ccccc23)c1 [Compound 15]
melting point: 145 to 146 °C

COc1ccc(OC)c(/C=C/c2cc(=O)oc3c2ccc2ccccc23)c1 [Compound 20]
inhibition at 10 µM (MDA-MB-231 cells): 7.53% | melting point: 168 to 170 °C

COc1cc(/C=C/c2cc(=O)oc3c2ccc2c(OC)cccc23)cc(OC)c1OC [Compound 31]
inhibition at 10 µM (MDA-MB-231 cells): 1.7% | melting point: 205 to 206 °C

COc1ccc(/C=C/c2cc(=O)oc3c2ccc2ccccc23)cc1 [Compound 11]
inhibition at 10 µM (MDA-MB-231 cells): 1.46% | melting point: 142 to 144 °C

COc1cccc(OC)c1/C=C/c1cc(=O)oc2c1ccc1c(C)cccc12 [Compound 37]
inhibition at 10 µM (MDA-MB-231 cells): 11.6% | melting point: 160 to 161 °C

COc1cc(/C=C/c2cc(=O)oc3c2ccc2ccccc23)cc(OC)c1OC [Compound 18]
inhibition at 10 µM (MDA-MB-231 cells): 8.2% | melting point: 172 to 173 °C

COc1ccc(/C=C/c2cc(=O)oc3c2ccc2ccccc23)cc1OC [Compound 17]
melting point: 180 to 182 °C

COc1ccc(/C=C/c2cc(=O)oc3c2ccc2c(OC)cccc23)c(OC)c1 [Compound 30]
inhibition at 10 µM (MDA-MB-231 cells): 17.9%

COc1cc(/C=C/c2cc(=O)oc3c2ccc2c(OC)cccc23)cc(OC)c1 [Compound 26]
Antiproliferative activity at 10μM in MDA-MB-231 (MDA-MB-231 cells): 50.03% | % Inhibition of cell viability at 10 µM, 4T1 (Mouse Breast Cancer) [1]: 36.12% | % Inhibition of cell viability at 10 µM, A549 (Lung) (A549 (Lung)): NA (NA= Not active (% Inhibition <30%)) | % Inhibition of cell viability at 10 µM, DLD1 (Colon) (DLD1 (Colon)): NA (NA= Not active (% Inhibition <30%)) | % Inhibition of cell viability at 10 µM, PANC-1 (Pancreas) (PANC-1 (Pancreas)): NA (NA= Not active (% Inhibition <30%))

COc1ccc(OC)c(/C=C/c2cc(=O)oc3c2ccc2c(OC)cccc23)c1 [Compound 29]
inhibition at 10 µM (MDA-MB-231 cells): 10.4%

COc1cc(/C=C/c2cc(=O)oc3c2ccc2c(C)cccc23)cc(OC)c1OC [Compound 38]
inhibition at 10 µM (MDA-MB-231 cells): 22%

COc1ccc(/C=C/c2cc(=O)oc3c2ccc2c(C)cccc23)cc1OC [Compound 39]
inhibition at 10 µM (MDA-MB-231 cells): 10.1%

N#Cc1ccc(/C=C/c2cc(=O)oc3c2ccc2ccccc23)cc1 [Compound 14]
inhibition at 10 µM (MDA-MB-231 cells): 12.4%

COc1ccc(/C=C/c2cc(=O)oc3c2ccc2ccccc23)c(OC)c1 [Compound 21]
inhibition at 10 µM (MDA-MB-231 cells): 0.16% | melting point: 181 to 183 °C

Cc1cccc2c1ccc1c(/C=C/c3ccc([N+](=O)[O-])cc3)cc(=O)oc12 [Compound 33]
inhibition at 10 µM (MDA-MB-231 cells): 6.12% | melting point: 238 to 239 °C

COc1cccc2c1ccc1c(/C=C/c3ccc([N+](=O)[O-])cc3)cc(=O)oc12 [Compound 24]
inhibition at 10 µM (MDA-MB-231 cells): 20% | melting point: 220 to 222 °C

COc1ccc(/C=C/c2cc(=O)oc3c2ccc2c(C)cccc23)c(OC)c1 [Compound 35]
inhibition at 10 µM (MDA-MB-231 cells): 12.8%

COc1ccc(/C=C/c2cc(=O)oc3c2ccc2c(OC)cccc23)cc1 [Compound 23]
inhibition at 10 µM (MDA-MB-231 cells): 6.04% | melting point: 170 to 171 °C

Cc1cccc2c1ccc1c(/C=C/c3ccccc3)cc(=O)oc12 [Compound 32]
inhibition at 10 µM (MDA-MB-231 cells): 18.2% | melting point: 178 to 179 °C

COc1ccc(/C=C/c2cc(=O)oc3c2ccc2c(OC)cccc23)cc1OC [Compound 27]
inhibition at 10 µM (MDA-MB-231 cells): 8.81%

COc1cccc(OC)c1/C=C/c1cc(=O)oc2c1ccc1ccccc12 [Compound 16]
% Inhibition of cell viability at 10 µM, MDA-MB-231 (Breast) (MDA-MB-231 cells; 10 µM): 56.48% | inhibition at 10 µM (MDA-MB-231 cells): > 50% | % Inhibition of cell viability at 10 µM, 4T1 (Mouse Breast Cancer) [1]: 33.89% | % Inhibition of cell viability at 10 µM, A172 (Brain) (A172 (Brain)): NA (NA= Not active (% Inhibition <30%)) | % Inhibition of cell viability at 10 µM, A549 (Lung) (A549 (Lung)): NA (NA= Not active (% Inhibition <30%)) | % Inhibition of cell viability at 10 µM, DLD1 (Colon) (DLD1 (Colon)): NA (NA= Not active (% Inhibition <30%)) | % Inhibition of cell viability at 10 µM, PANC-1 (Pancreas) (PANC-1 (Pancreas)): NA (NA= Not active (% Inhibition <30%)) | % Inhibition of cell viability at 10 µM, PLC/PRF/5 (Liver) (PLC/PRF/5 (Liver)): NA (NA= Not active (% Inhibition <30%)) | % Inhibition of cell viability at 10 µM, SK-OV-3 (Ovary) (SK-OV-3 (Ovary)): NA (NA= Not active (% Inhibition <30%)) | melting point: 174 to 175 °C

O=C(O)c1cc[c]([Sb](=[O])([OH])[OH])cc1[N+](=O)[O-] [NSC13755, reference compound]
Inhibition of FEN1 flap cleavage activity (FEN1 protein): less clevage

CN(C)c1ccc(/C=C/c2cc(=O)oc3c2ccc2ccccc23)cc1 [Compound 12]
Antiproliferative activity at 10μM in MDA-MB-231 (MDA-MB-231 cells): 4.62%

COc1cccc(OC)c1/C=C/c1cc(=O)oc2c1ccc1c(OC)cccc12 [Compound 28]
melting point: 178 to 179 °C

COc1cccc2c1ccc1c(/C=C/c3ccc(C#N)cc3)cc(=O)oc12 [Compound 25]
inhibition at 10 µM (MDA-MB-231 cells): 27.9% | melting point: 188 to 189 °C
